Experimental data from ChEMBL document CHEMBL1132885, “Phosphate prodrugs of PD154075” (Bioorg Med Chem Lett, 2000).

Assays:
Rattus norvegicus [1] = test: In vivo percentage of prodrug (Compound) reconversion to PD-154075 from (male Wistar rat) plasma after intravenous administration of the 5 mg/ml compound; type: functional
[2] = Solubility in water was determined; type: physicochemical
Rattus norvegicus [3] = test: In vivo percentage of prodrug (Compound) reconversion to PD-154075 from (male Wistar rat) plasma after intravenous administration of the 4.6 mg/ml compound; type: functional
Rattus norvegicus [4] = test: In vivo percentage of prodrug (Compound) reconversion to PD-154075 from (male Wistar rat) plasma after intravenous administration of the 5.7 mg/ml compound; type: functional
Rattus norvegicus [5] = test: In vivo percentage of prodrug (Compound) reconversion to PD-154075 from (male Wistar rat) plasma after intravenous administration of the 5.3 mg/mL compound; type: functional

Structure (SMILES) | solubility [2] [mg/mL] | Prodrug reconversion (Rattus norvegicus [1]) [%] | Prodrug reconversion (Rattus norvegicus [3]) [%] | Prodrug reconversion (Rattus norvegicus [4]) [%] | Prodrug reconversion (Rattus norvegicus [5]) [%]
Cc1cc(C)c(C(C)(C)CC(=O)n2cc(C[C@@](C)(NC(=O)OCc3cc4ccccc4o3)C(=O)N[C@H](C)c3ccccc3)c3ccccc32)c(OP(=O)([O-])[O-])c1.[Na+].[Na+] | 31 | 9.35 |  |  | 
C[C@@H](NC(=O)[C@@](C)(Cc1cn(C(=O)OCOC(=O)c2ccc(COP(=O)([O-])[O-])cc2)c2ccccc12)NC(=O)OCc1cc2ccccc2o1)c1ccccc1.[Na+].[Na+] | 58 |  |  |  | 59.5

Now from value to compound, other results behind:

solubility [2] [mg/mL] | Structure (SMILES) | Prodrug reconversion (Rattus norvegicus [1]) [%] | Prodrug reconversion (Rattus norvegicus [3]) [%] | Prodrug reconversion (Rattus norvegicus [4]) [%] | Prodrug reconversion (Rattus norvegicus [5]) [%]
55 | C[C@@H](NC(=O)[C@@](C)(Cc1cn(C(=O)c2ccccc2COP(=O)([O-])[O-])c2ccccc12)NC(=O)OCc1cc2ccccc2o1)c1ccccc1.[Na+].[Na+] |  | 19.9 |  | 
76 | C[C@@H](NC(=O)[C@@](C)(Cc1cn(P(=O)([O-])[O-])c2ccccc12)NC(=O)OCc1cc2ccccc2o1)c1ccccc1.[Na+].[Na+] |  |  | 11.7 | 
< 0.001 | CC(NC(=O)[C@@](C)(Cc1c[nH]c2ccccc12)NC(=O)OCc1cc2ccccc2o1)c1ccccc1 (single isomer, unassigned) |  |  |  | 
